Experiments:
NCI-H1975 [1] = assay: Antiproliferative activity against human NCI-H1975 cells assessed as reduction in cell viability incubated for 72 hrs by SRB assay; assay type: functional, cell-based; details: NCI-H1975, 72 h
NCI-H1975 [2] = assay: Potency index, ratio of IC50 of AS4583 to IC50 of compound for Antiproliferative activity against human NCI-H1975 cells assessed as reduction in cell viability incubated for 72 hrs by SRB assay; assay type: functional
NCI-H1975 [3] = assay: Antitumor activity against human NCI-H1975 cells xenografted in athymic nude BALB/c mouse assessed as tumor size at 4 mg/kg, ip administered for 4 weeks (reference value: 546.2 +/- 95.2 cu.mm); assay type: functional
NCI-H1975 [4] = assay: Antitumor activity against human NCI-H1975 cells xenografted in athymic nude BALB/c mouse assessed as tumor size at 1 mg/kg, ip administered for 4 weeks (reference value: 546.2 +/- 95.2 cu.mm); assay type: functional
Hs68 = assay: Cytotoxicity against human HS68 cells assessed as reduction in cell viability incubated for 72 hrs by SRB assay; assay type: cell-based; details: Hs68, 72 h

Structure (SMILES) | IC50 (NCI-H1975 [1]) [µM] | also measured
Cc1oc2c(c1C(=O)NCCCCn1ccnc1)C(=O)c1ccccc1C2=O | 0.25 | –
Cc1oc2c(c1C(=O)NCCCn1cccc1)C(=O)c1ccccc1C2=O | 0.918 | –
CCc1oc2c(c1C(=O)NCCCn1ccnc1)C(=O)c1ccccc1C2=O | 0.288 | –
Cc1[nH]c2c(c1C(=O)NCCCn1ccnc1)C(=O)c1ccccc1C2=O | 8.73 | Ratio IC50 (NCI-H1975 [2]): 100
Cc1oc2c(c1C(=O)NCCCn1ccnc1)C(=O)c1ccc(F)cc1C2=O | 0.017 | Activity (NCI-H1975 [3]): 109.5 mm3; Activity (NCI-H1975 [4]): 128.2 mm3
Cc1oc2c(c1C(=O)NCCn1ccnc1)C(=O)c1ccccc1C2=O | 0.28 | –
Cc1oc2c(c1C(=O)NCCCCc1ccccc1)C(=O)c1ccccc1C2=O | > 10 | –
Cc1oc2c(c1C(=O)NCCCN1CCOCC1)C(=O)c1ccccc1C2=O | 0.08 | –
Cc1oc2c(c1C(=O)NCCCN1CCCC1)C(=O)c1ccccc1C2=O | 0.024 | IC50 (Hs68): 0.077 µM
Cc1oc2ccccc2c1C(=O)NCCCn1ccnc1 | > 10 | –
O=C1c2ccccc2C(=O)c2c1oc(-c1ccccc1)c2C(=O)NCCCn1ccnc1 | 0.826 | –
CC(C)c1oc2c(c1C(=O)NCCCn1ccnc1)C(=O)c1ccccc1C2=O | 0.26 | –
